Measured values published in patent publication US20100158973A1 (HADASIT MEDICAL RESEARCH SERVICES & DEVELOPMENT LlIMITED, priority 2006, published 2010).
Where “and” joins values, the source holds several entries; their conditions need not be identical. Equal values may be shown once. Entries after “also recorded” stand apart in the source; their conditions may differ.

Columns and labels:
[1] = system: SD/Hsd male rats, surgically induced infarct; assay: Infarct (scar) size after LAD ligation, Evans blue/TTC staining and planimetry; assay type: in vivo
[2] = system: SD/Hsd male rats, surgically induced infarct; assay: Histopathology of infarcted hearts (hematoxylin and eosin, Masson trichrome); assay type: in vivo
[3] = system: SD/Hsd male rats, surgically induced infarct; assay: Echocardiography before and 7 days after LAD ligation; conditions: for LVEDD (left ventricular end-diastolic diameter) / LVESD (left ventricular end-systolic diameter) / SF (shortening fraction): CBD group
Experimental: In the following experiment 14 SD/Hsd male rats weighing 275-350 g were used.
Rats were anesthetized with ketamine (10%): xylazine (2%), 0.85:0.15 IM 0.1 ml/kg. Animals were intubated and ventilated with a small animal respirator (Harvard Sc.). The heart was exposed via left sternotomy and the LAD was reversibly occluded for 30 minutes using a snare fashioned from an encircling silk ligature and a section of 5 French feeding tube. Coronary occlusion and reperfusion were verified by visual inspection. Following reperfusion the released ligature was left in situ. The chest was then closed in layers using uninterrupted sutures. Rats were extubated, received 30-50 cc saline subcutaneously to replace lost body fluids, and were treated with Rymadil (5 mg/kg, i.p.) analgesia for 3 days. […] The drug and the vehicle solutions were prepared in separate laboratories, ensuring that the staff (e.g. echocardiography and pathology) was blinded to the treatment arm. After 7 days, animals were re-anesthetized and ventilated as described above. The LAD was permanently re-occluded, and the heart harvested for further analysis.
Rats were anesthetized with Ketamine (10%):Xylasine (2%), 0.85:0.15 IM 0.1 ml/kg and the chest cavity was shaved. Echo was carried out prior to surgery and 1 week after, prior to sacrifice of the animals.
Echo imaging was performed using a GE Vivid3 platform, equipped with a 13 MHz linear epiaortic transducer (General Electric, Haifa, Israel). The probe was positioned in a left parasternal position, and 2D imaging of the heart in the short axis was performed using a high frame rate. This image was used to guide an M-mode cursor down the medial axis of the left ventricle. Measurements were performed in triplicates using the leading edge convention for myocardial borders.
The following parameters were measured: Left ventricular end-diastolic diameter (LVEDD) Left ventricular end-systolic diameter (LVESD); anterior wall thickness in diastole and systole (AWTd, AWTs); and Heart rate (HR).
Shortening fraction (SF) was calculated using the above variables.

ApoE−/− mice [4] = assay: Plasma triglyceride levels in ApoE−/− mice on high-fat diet; conditions: 20 IP injections of 5 mg/kg, 12 h fasting
Experimental: (§1) Twelve- to fourteen-week-old male and female ApoE ApoE^−/− mice on a C57B1/6 background were fed a high-fat diet (Takland adjusted calories, Western-type diet: 2.1% fat, 15% cholesterol, 19.5% casein) for 12 weeks.
Blood samples were collected in capillary tubes following twelve hours of fasting, and immediately centrifuged for plasma removal.
(§2) Control mice were injected with Cremophor:ethanol:saline 1:1:18. Plasma triglyceride levels were assayed following twelve hours fasting using an enzymatic reagent (Sigma™).

ApoE−/− mice [5] = assay: LDL cholesterol levels in ApoE−/− mice (Friedewald formula); conditions: high-fat diet, 20 IP injections of 5 mg/kg
Experimental: as §1
Blood samples were collected in capillary tubes following twelve hours of fasting, and immediately centrifuged for plasma removal. Plasma samples were assayed for total cholesterol using conventional colorimetric assays.
as §2
LDLc=TC−triglycerides levels/5-HDLc
Statistical analysis was by ANOVA test (ANalysis Of VAriance between groups).

ApoE−/− mice [6] = assay: Size of atherosclerotic plaques in the aorta of ApoE−/− mice
Experimental: ApoE knock-out (ApoE^−/−) mice are known to spontaneously develop atherosclerosis, which may be enhanced by a high-fat diet. Twelve- to fourteen-week-old male and female ApoE ApoE^−/− mice on a C57B1/6 background were fed a high-fat diet (Takland adjusted calories, Western-type diet: 2.1% fat, 15% cholesterol, 19.5% casein) for 12 weeks.
Blood samples were collected in capillary tubes following twelve hours of fasting, and immediately centrifuged for plasma removal. Plasma samples were assayed for total cholesterol using conventional colorimetric assays. Mice were then sacrificed, and their aorta were extracted and examined for the presence and size of atherosclerotic lesions (plaques).
as §2

[7] = Day 7 after LAD ligation, 5 mg/kg IP daily

## Cannabidiol [CBD]
[1]; individual animals of CBD-treated group
  % infarct size: 16.3% and 15.3% and 14.6% and 13.9% and 6.5% and 7.5% and 7.6% (2×) and 8.1% and 7.8%
[1]; rats, 5 mg/kg IP 1 h before surgery and daily, 7 days, control 28.2±7.0%
  mean infarct size as percent of area at risk: 9.6±3.9%
[2]; FIG. 4B, animal treated with CBD
  inflammation in heart histology: almost total lack of inflammation
[2]; Masson trichrome staining
  granulation tissue formation with early collagen deposition vs control: similar; also recorded: did not affect
[2]; graded by pathologist, control animals 2-3
  inflammatory infiltrate grade (leukocytes infiltrating the border of the infarcted zone): 1+ or nullnil (0)
[3]; Day 0 (baseline)
  LVEDD (left ventricular end-diastolic diameter): 0.70 ± 0.06 mm
  LVESD (left ventricular end-systolic diameter): 0.36 ± 0.08 mm
  SF (shortening fraction): 48.27±8.6%
[3]; [7]
  LVEDD (left ventricular end-diastolic diameter): 0.72 ± 0.05 mm
  LVESD (left ventricular end-systolic diameter): 0.43 ± 0.07 mm
[3]; Day 7 after LAD ligation, 5 mg/kg IP daily, 5 mg/kg
  SF (shortening fraction): 39.7±8.22%
[3]; FIG. 4D, CBD-treated animal
  LV function in M mode echocardiography: preserved LV function
ApoE−/− mice [4]
  lowering of plasma triglyceride levels compared with control-treated mice: 59%
ApoE−/− mice [5]
  lowering of LDL levels vs control: 17%
ApoE−/− mice [5]; calculated by Friedewald formula
  LDL cholesterol level: 1300 mg/dL
ApoE−/− mice [6]; first experiment, 12 CBD-treated mice, control 5.5%
  atherosclerotic plaques, average % of the aorta area: 3.18%
ApoE−/− mice [6]; second experiment, control 10.6%
  plaque area, % of the total aorta area: 5.09%
